Data reported in ChEMBL document CHEMBL3763155 (Bioorg Med Chem Lett, 2016).

Key:
[1] = Displacement of 125I-[Sar1,Leu8] angiotensin-2 from rat type 1 angiotensin-2 receptor expressed in African green monkey COS7 cells after 24 hrs; assay type: cell-based; details: cos-7
[2] = molecular target: T1, Type-2 angiotensin II receptor (Homo sapiens, UniProt P50052); assay: Binding affinity to type-2 angiotensin-2 receptor (unknown origin)
T1 sequence (P50052 whole entry): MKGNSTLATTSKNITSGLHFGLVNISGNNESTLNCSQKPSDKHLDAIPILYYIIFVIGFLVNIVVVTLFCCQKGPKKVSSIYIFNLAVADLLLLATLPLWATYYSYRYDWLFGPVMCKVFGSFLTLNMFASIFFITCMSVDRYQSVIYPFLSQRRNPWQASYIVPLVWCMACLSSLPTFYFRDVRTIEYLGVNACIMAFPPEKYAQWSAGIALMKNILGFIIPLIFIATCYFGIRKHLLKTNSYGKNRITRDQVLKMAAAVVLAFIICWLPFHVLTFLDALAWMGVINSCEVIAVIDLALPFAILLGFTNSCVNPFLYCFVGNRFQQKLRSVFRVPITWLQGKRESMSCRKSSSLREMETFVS

Row | SMILES | Ki [1] | Ki [2] | IC50 [1]
1 | CCOc1nc2cccc(C(=O)O)c2n1Cc1ccc(-c2ccccc2-c2nnn[nH]2)cc1 | 0.17 nM | > 10000 nM | –
2 | CCCCOC(=O)NS(=O)(=O)c1ccc(CC(C)C)cc1-c1ccc(Cn2c(CC)nc3c(C)cc(C)nc32)cc1 | – | – | 2.1 nM
3 | CCCCOC(=O)NS(=O)(=O)c1ccc(CCC)cc1-c1ccc(Cn2c(CC)nc3c(C)cc(C)nc32)cc1 | – | – | 1.5 nM
4 | CC[C@H](C)[C@H](NC(=O)[C@H](Cc1ccc(O)cc1)NC(=O)[C@@H](NC(=O)[C@H](CCCNC(=N)N)NC(=O)[C@@H](N)CC(=O)O)C(C)C)C(=O)N[C@@H](Cc1cnc[nH]1)C(=O)N1CCC[C@H]1C(=O)N[C@@H](Cc1ccccc1)C(=O)O [ANGIOTENSIN II] | 0.95 nM | – | –
5 | CCCCOC(=O)NS(=O)(=O)c1sc(CC(C)C)cc1-c1ccc(Cn2ccnc2)cc1 [BULOXIBUTID] | > 10000 nM | – | –
6 | CCCCc1nc(Cl)c(CO)n1Cc1ccc(-c2ccccc2-c2nnn[nH]2)cc1 [LOSARTAN] | – | – | 12.1 nM
7 | COc1ccc2c(c1OCc1ccccc1)C[C@@H](C(=O)O)N(C(=O)C(c1ccccc1)c1ccccc1)C2 [OLODANRIGAN] | 409 nM | – | –
